Laboratory results as given in patent US10487093B2, “Heterocyclic compounds, in particular 2-oxo-4,4,5,5,6,6,7,7-octahydrobenzoxazole derivatives, and their use as antibacterial compounds” (priority 2016, dated 2019).
In brackets after ≈: the same amount, converted by molar mass. Read-outs that look alike come from different tables or passages of the source.

What was measured:
[1] = system: E. coli MG1655 D87G; assay type: cell-based, Escherichia coli; conditions: compared to the isogenic parent strain E. coli MG1655; D87G mutation on DNA gyrase subunit GyrA
[2] = system: E. coli MG1655 S83L; assay type: cell-based, Escherichia coli; conditions: compared to the isogenic parent strain E. coli MG1655; S83L mutation on DNA gyrase subunit GyrA
[3] = system: Staphylococcus aureus ATCC 29213; experiment: MIC, broth microdilution (CLSI) versus planktonic bacteria; assay type: cell-based
[4] = system: Acinetobacter baumannii NCTC 13420; experiment: as above; assay type: cell-based
[5] = system: human hepatic cell line (HepG2 ATCC HB-8065); experiment: Human cell viability assay (CellTiter-Glo); conditions: Homo sapiens, HepG2, 24 h, read-out: IC50 (μg/mL) HepG2
[6] = system: Streptococcus pneumoniae ATCC 49619; experiment: MIC, broth microdilution (CLSI) versus planktonic bacteria; assay type: cell-based
[7] = system: Acinetobacter baumannii ATCC 19606; experiment: as above; assay type: cell-based
[8] = system: Enterobacter cloacae NCTC 13406; experiment: as above; assay type: cell-based
[9] = system: Escherichia coli ATCC 25922; experiment: as above; assay type: cell-based
[10] = system: Pseudomonas aeruginosa ATCC 27853; experiment: as above; assay type: cell-based
[11] = system: Haemophilus influenzae ATCC 49247; experiment: as above; assay type: cell-based
[12] = system: E. coli MG1655; experiment: as above; assay type: cell-based, Escherichia coli; conditions: Escherichia coli, MG1655, read-out: MIC, Ec MG1655 WT
[13] = ATCC29213, Staphylococcus aureus ATCC 29213, 16-20 h, mode of three independent experiments, read-out: MIC, Sa ATCC 29213
[14] = NCTC13420, Acinetobacter baumannii NCTC 13420, 16-20 h, mode of three independent experiments, read-out: MIC, Ab NCTC 13420
[15] = ATCC49619, Streptococcus pneumoniae ATCC 49619, 16-20 h, mode of three independent experiments, read-out: MIC, Sp ATCC 49619
[16] = NCTC13406, Enterobacter cloacae NCTC 13406, 16-20 h, mode of three independent experiments, read-out: MIC, Ecl NCTC 13406
[17] = ATCC25922, Escherichia coli ATCC 25922, 16-20 h, mode of three independent experiments, read-out: MIC, Ec ATCC 25922
[18] = ATCC19606, Acinetobacter baumannii ATCC 19606, 16-20 h, mode of three independent experiments, read-out: MIC, Ab ATCC 19606
[19] = ATCC27853, Pseudomonas aeruginosa ATCC 27853, 16-20 h, mode of three independent experiments, read-out: MIC, Pa ATCC 27853
[20] = ATCC49247, Haemophilus influenzae ATCC 49247, 16-20 h, mode of three independent experiments, read-out: MIC, Hi ATCC 49247

| Structure (SMILES) | Fold increase in MIC, E. coli MG1655 D87G [1] [fold] | Fold increase in MIC, E. coli MG1655 S83L [2] [fold] | MIC ([3]; Staphylococcus aureus, ATCC29213, read-out: MIC, Sa ATCC 29213) [µg/mL] | MIC ([4]; Acinetobacter baumannii, NCTC13420, read-out: MIC, Ab NCTC 13420) [µg/mL] | IC50 [5] [µg/mL] | MIC ([6]; Streptococcus pneumoniae, ATCC49619, read-out: MIC, Sp ATCC 49619) [µg/mL] | MIC ([7]; Acinetobacter baumannii, ATCC19606, read-out: MIC, Ab ATCC 19606) [µg/mL] | MIC ([8]; Enterobacter cloacae, NCTC13406, read-out: MIC, Ecl NCTC 13406) [µg/mL] | MIC ([9]; Escherichia coli, ATCC25922, read-out: MIC, Ec ATCC 25922) [µg/mL] | MIC ([10]; Pseudomonas aeruginosa, ATCC27853, read-out: MIC, Pa ATCC 27853) [µg/mL] | MIC ([11]; Haemophilus influenzae, ATCC49247, read-out: MIC, Hi ATCC 49247) [µg/mL] | MIC [3, 13] [µg/mL] | MIC [4, 14] [µg/mL] | MIC [12] [µg/mL] | MIC [6, 15] [µg/mL] | MIC [8, 16] [µg/mL] | MIC [9, 17] [µg/mL] | MIC [7, 18] [µg/mL] | MIC [10, 19] [µg/mL] | MIC [11, 20] [µg/mL] |
| --- | --- | --- | --- | --- | --- | --- | --- | --- | --- | --- | --- | --- | --- | --- | --- | --- | --- | --- | --- | --- |
| C[C@H]1COc2c(N3CCN(C)CC3)c(F)cc3c(=O)c(C(=O)O)cn1c23 [LEV, levofloxacin, reference compound] | 8 | 8 | – | – | – | – | – | – | – | – | – | – | – | – | – | – | – | – | – | – |
| CNCCOc1ccc2ccc(=O)n(CCN[C@@H]3CC[C@@H]4[C@@H](C3)OC(=O)N4c3ccc4c(n3)NC(=O)CO4)c2c1 [Compound 39, (3aR,6R,7aR)—N-(2-{7-[2-(methylazaniumyl)ethoxy]-2-oxo-1,2-dihydroquinolin-1-yl}ethyl)-2-oxo-3-{3-oxo-2H,3H,4H-pyrido[3,2-b][1,4]oxazin-6-yl}-octahydro-1,3-benzoxazol-6-aminium dichloride] | – | – | 1 to 10 | 10 to 100 | > 100 | 1 to 10 | > 100 | 10 to 100 | 1 to 10 | 1 to 10 | 10 to 100 | – | – | – | – | – | – | – | – | – |
| N#Cc1ccc2c(ccc(=O)n2CCN[C@@H]2CC[C@@H]3[C@@H](C2)OC(=O)N3c2ccc3c(n2)NC(=O)CO3)c1 [Compound 106, 1-(2-{[(3aR,6R,7aR)-2-oxo-3-{3-oxo-2H,3H,4H-pyrido[3,2-b][1,4]oxazin-6-yl}-octahydro-1,3-benzoxazol-6-yl]amino}ethyl)-2-oxo-1,2-dihydroquinoline-6-carbonitrile] | – | – | – | – | – | – | – | – | – | – | – | < 1 | 1 to 10 (≈ 2 to 20 µM) | < 1 | < 1 | 1 to 10 (≈ 2 to 20 µM) | < 1 | – | – | – |
| COC(=O)c1ccc2ccc(=O)n(CCN[C@@H]3CC[C@@H]4[C@@H](C3)OC(=O)N4c3ccc4c(n3)NC(=O)CO4)c2c1 [Compound 36, methyl 1-(2-{[(3aR,6R,7aR)-2-oxo-3-{3-oxo-2H,3H,4H-pyrido[3,2-b][1,4]oxazin-6-yl}-octahydro-1,3-benzoxazol-6-yl]amino}ethyl)-2-oxo-1,2-dihydroquinoline-7-carboxylate] | – | – | – | – | 10 to 100 (≈ 18.7 to 187 µM) | – | – | – | – | – | – | < 1 | < 1 | – | < 1 | < 1 | < 1 | < 1 | 1 to 10 (≈ 1.87 to 18.7 µM) | < 1 |
| COc1ccc2ccc(=O)n(CCCN[C@@H]3CC[C@@H]4[C@@H](C3)OC(=O)N4c3ncc4c(n3)NC(=O)CO4)c2n1 [Compound 79, 1-(3-{[(3aR,6R,7aR)-2-oxo-3-{7-oxo-6H,7H,8H-pyrimido[5,4-b][1,4]oxazin-2-yl}-octahydro-1,3-benzoxazol-6-yl]amino}propyl)-7-methoxy-1,2-dihydro-1,8-naphthyridin-2-one] | – | – | – | – | 10 to 100 (≈ 19.2 to 192 µM) | – | – | – | – | – | – | < 1 | < 1 | – | < 1 | 1 to 10 (≈ 1.92 to 19.2 µM) | < 1 | 1 to 10 (≈ 1.92 to 19.2 µM) | 1 to 10 (≈ 1.92 to 19.2 µM) | < 1 |
| N#Cc1ccc2ccc(=O)n(CCN[C@@H]3CC[C@@H]4[C@@H](C3)OC(=O)N4c3ncc4c(n3)NC(=O)CO4)c2c1 [Compound 37, 1-(2-{[(3aR,6R,7aR)-2-oxo-3-{7-oxo-6H,7H,8H-pyrimido[5,4-b][1,4]oxazin-2-yl}-octahydro-1,3-benzoxazol-6-yl]amino}ethyl)-2-oxo-1,2-dihydroquinoline-7-carbonitrile] | – | – | – | – | > 100 | – | – | – | – | – | – | < 1 | 1 to 10 (≈ 1.99 to 19.9 µM) | – | < 1 | < 1 | < 1 | 1 to 10 (≈ 1.99 to 19.9 µM) | 1 to 10 (≈ 1.99 to 19.9 µM) | < 1 |
| CN(C)CCOc1ccc2ccc(=O)n(CCN[C@@H]3CC[C@@H]4[C@@H](C3)OC(=O)N4c3ccc4c(n3)NC(=O)CO4)c2c1 [Compound 32, 1-(2-{[(3aR,6R,7aR)-2-oxo-3-{3-oxo-2H,3H,4H-pyrido[3,2-b][1,4]oxazin-6-yl}-octahydro-1,3-benzoxazol-6-yl]amino}ethyl)-7-[2-(dimethylamino)ethoxy]-1,2-dihydroquinolin-2-one] | – | – | – | – | > 100 | – | – | – | – | – | – | 1 to 10 (≈ 1.78 to 17.8 µM) | > 100 | – | 1 to 10 (≈ 1.78 to 17.8 µM) | 10 to 100 (≈ 17.8 to 178 µM) | 1 to 10 (≈ 1.78 to 17.8 µM) | – | 1 to 10 (≈ 1.78 to 17.8 µM) | 10 to 100 (≈ 17.8 to 178 µM) |
| N#Cc1ccc2ccc(=O)n(CCN(CCN)[C@@H]3CC[C@@H]4[C@@H](C3)OC(=O)N4c3ccc4c(n3)NC(=O)CO4)c2c1 [Compound 19, 1-(2-{[(3aR,6R,7aR)-2-oxo-3-{3-oxo-2H,3H,4H-pyrido[3,2-b][1,4]oxazin-6-yl}-octahydro-1,3-benzoxazol-6-yl](2-aminoethyl)amino}ethyl)-2-oxo-1,2-dihydroquinoline-7-carbonitrile] | – | – | – | – | > 100 | – | – | – | – | – | – | < 1 | 10 to 100 (≈ 18.4 to 184 µM) | – | > 100 | > 100 | 10 to 100 (≈ 18.4 to 184 µM) | – | 10 to 100 (≈ 18.4 to 184 µM) | 10 to 100 (≈ 18.4 to 184 µM) |
| COc1ccc2ccc(=O)n(CCN[C@@H]3CC[C@@H]4[C@H](C3)OC(=O)N4c3ccc4c(n3)NC(=O)CO4)c2n1 [Compound 25, 1-(2-{[(3aR,6R,7aS)-2-oxo-3-{3-oxo-2H,3H,4H-pyrido[3,2-b][1,4]oxazin-6-yl}-octahydro-1,3-benzoxazol-6-yl]amino}ethyl)-7-methoxy-1,2-dihydro-1,8-naphthyridin-2-one] | – | – | – | – | 10 to 100 (≈ 19.7 to 197 µM) | – | – | – | – | – | – | < 1 | < 1 | – | < 1 | < 1 | < 1 | – | 1 to 10 (≈ 1.97 to 19.7 µM) | < 1 |
| CSc1ncc2ccc(=O)n(CCN[C@H]3CC[C@H]4[C@@H](C3)OC(=O)N4c3ccc4c(n3)NC(=O)CO4)c2n1 [Compound 53, (3aS,6S,7aR)-6-({2-[2-(methylsulfanyl)-7-oxo-7H,8H-pyrido[2,3-d]pyrimidin-8-yl]ethyl}amino)-3-{3-oxo-2H,3H,4H-pyrido[3,2-b][1,4]oxazin-6-yl}-octahydro-1,3-benzoxazol-2-one] | – | – | – | – | > 100 | – | – | – | – | – | – | < 1 | 1 to 10 (≈ 1.91 to 19.1 µM) | – | 1 to 10 (≈ 1.91 to 19.1 µM) | 10 to 100 (≈ 19.1 to 191 µM) | 1 to 10 (≈ 1.91 to 19.1 µM) | – | 10 to 100 (≈ 19.1 to 191 µM) | 1 to 10 (≈ 1.91 to 19.1 µM) |
| COc1ncc2ccc(=O)n(CCN[C@H]3CC[C@H]4[C@@H](C3)OC(=O)N4c3ccc4c(n3)NC(=O)CO4)c2n1 [Compound 17, (3aS,6S,7aR)-6-[(2-{2-methoxy-7-oxo-7H,8H-pyrido[2,3-d]pyrimidin-8-yl}ethyl)amino]-3-{3-oxo-2H,3H,4H-pyrido[3,2-b][1,4]oxazin-6-yl}-octahydro-1,3-benzoxazol-2-one] | – | – | – | – | 10 to 100 (≈ 19.7 to 197 µM) | – | – | – | – | – | – | 1 to 10 (≈ 1.97 to 19.7 µM) | 10 to 100 (≈ 19.7 to 197 µM) | – | 10 to 100 (≈ 19.7 to 197 µM) | 10 to 100 (≈ 19.7 to 197 µM) | 1 to 10 (≈ 1.97 to 19.7 µM) | – | 10 to 100 (≈ 19.7 to 197 µM) | 10 to 100 (≈ 19.7 to 197 µM) |
